According to patent US10669252B2, “Benzazepine derivative, preparation method, pharmaceutical composition and use thereof” (SHANGHAI DE NOVO PHARMATECH CO., LTD., priority 2016, dated 2020):

How the values were obtained:
TLR8 = target: T1, TLR8 (Homo sapiens, UniProt Q9NR97); assay: TLR8 cell based assay (HEK-BLUE-hTLR8, SEAP reporter linked to NF-κB activation); settings: HEK-BLUE-hTLR8 cells
T1 construct: host or cells: HEK293 (HEK-BLUE-hTLR8)
T1 sequence (Q9NR97 27-1041): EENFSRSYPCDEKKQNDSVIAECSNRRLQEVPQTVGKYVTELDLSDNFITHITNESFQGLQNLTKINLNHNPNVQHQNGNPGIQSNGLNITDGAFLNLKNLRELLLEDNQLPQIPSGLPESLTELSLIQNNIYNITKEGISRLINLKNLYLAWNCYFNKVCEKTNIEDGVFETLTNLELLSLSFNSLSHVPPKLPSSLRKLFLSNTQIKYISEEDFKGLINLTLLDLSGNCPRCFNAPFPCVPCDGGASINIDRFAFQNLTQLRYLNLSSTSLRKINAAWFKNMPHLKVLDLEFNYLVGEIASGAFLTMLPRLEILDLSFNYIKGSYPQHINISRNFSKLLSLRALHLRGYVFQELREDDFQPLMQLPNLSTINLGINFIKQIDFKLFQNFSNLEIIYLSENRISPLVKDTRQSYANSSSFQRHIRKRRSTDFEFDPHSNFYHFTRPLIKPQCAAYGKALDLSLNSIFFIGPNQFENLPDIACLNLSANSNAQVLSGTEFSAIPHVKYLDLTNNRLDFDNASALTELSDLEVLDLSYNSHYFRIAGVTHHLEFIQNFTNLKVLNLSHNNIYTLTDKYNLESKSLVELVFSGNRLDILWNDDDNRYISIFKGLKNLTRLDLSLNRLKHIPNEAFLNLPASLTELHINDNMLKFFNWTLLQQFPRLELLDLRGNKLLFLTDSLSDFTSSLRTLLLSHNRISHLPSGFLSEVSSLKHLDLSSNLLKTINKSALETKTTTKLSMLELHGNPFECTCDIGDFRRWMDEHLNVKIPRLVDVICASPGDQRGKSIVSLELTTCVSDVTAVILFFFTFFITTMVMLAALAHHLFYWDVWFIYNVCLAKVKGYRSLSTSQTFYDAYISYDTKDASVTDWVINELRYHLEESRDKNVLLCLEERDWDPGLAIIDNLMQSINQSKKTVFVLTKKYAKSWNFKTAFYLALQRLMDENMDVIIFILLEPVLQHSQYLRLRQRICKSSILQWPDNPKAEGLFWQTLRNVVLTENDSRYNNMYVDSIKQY
Experimental: (§1) In this assay, the bioactivity of compound of formula Iw as measured using a cell based assay. The assay was performed in human embryonic kidney cells (HEK293) expressing TLR8 or other TLR family members such as TLR4, TLR7 and TLR9 (for selectivity screens). The activity of specific TLR agonists was assessed using the secretory embryonic alkaline phosphatase (SEAP) reporter gene that is linked to NF-κB activation in response to TLR stimulation. The SEAP activity was measured using the Quanti-Blue substrate (InvivoGen) after TLR agonist treatment.
(§2) The detailed experimental method is as follow:
HEK-BLUE-hTLR8 cell line was purchased from InvivoGen. The cells were cultured in Dulbecco's Modified Eagle's Media containing 4.5 g/L […] (Sigma-Aldrich) and 10% FBS. The cells were cultured at 37° C., 95% humidity and 5% CO2.
Test concentrations of the compounds ranged from 0.5 nM to 15 μM with 10 points. A known TLR8 agonist was added as positive control and 1 μl of DMSO was added as negative control.
(§3) The cells were prepared as follows: The cells were removed from the incubator and growth medium was discarded. The cells were gently rinsed with pre-warmed 10 ml PBS for a T-150 flask. 12 ml pre-warmed growth medium was added, and the cells were detached by tapping the flask. Cell clumps were dissociated by gently pipetting up and down. The cells were counted. Single cell suspension was prepared at 200,000 cells per ml in growth medium and 200 μl of the cell suspension (40,000 cells per well) were immediately added to each well of the plate. The final DMSO concentration of each well was 0.5%.
The cells were cultured and treated with the compounds at 37° C., 5% CO2 for 24 h.
(§4) 20 μL of the supernatant of each well were added to 180 μL of QUANTI-Blue, and the plates were incubated at 37° C. for 1.5 hour. Optical density was measured using a spectrophotometer at 650 nm (OD data). Activivation was calculated by using the equation below: Activivation %=(Compound OD mean value−DMSO OD mean value)/(positive control OD mean value−DMSO OD mean value)×100
(§5) The data were analyzed using the GraphPad to get EC50 values and fitting dose response curves of the compounds.

TLR7 = target: T2, TLR7 (Homo sapiens, UniProt Q9NYK1); assay: TLR7 cell based assay (HEK-BLUE-hTLR7, SEAP reporter linked to NF-κB activation); settings: HEK-BLUE-hTLR7 cells, 24 hours treatment, SEAP/QUANTI-Blue readout
T2 construct: host or cells: HEK293 (HEK-BLUE-hTLR7)
T2 sequence (Q9NYK1 27-1049): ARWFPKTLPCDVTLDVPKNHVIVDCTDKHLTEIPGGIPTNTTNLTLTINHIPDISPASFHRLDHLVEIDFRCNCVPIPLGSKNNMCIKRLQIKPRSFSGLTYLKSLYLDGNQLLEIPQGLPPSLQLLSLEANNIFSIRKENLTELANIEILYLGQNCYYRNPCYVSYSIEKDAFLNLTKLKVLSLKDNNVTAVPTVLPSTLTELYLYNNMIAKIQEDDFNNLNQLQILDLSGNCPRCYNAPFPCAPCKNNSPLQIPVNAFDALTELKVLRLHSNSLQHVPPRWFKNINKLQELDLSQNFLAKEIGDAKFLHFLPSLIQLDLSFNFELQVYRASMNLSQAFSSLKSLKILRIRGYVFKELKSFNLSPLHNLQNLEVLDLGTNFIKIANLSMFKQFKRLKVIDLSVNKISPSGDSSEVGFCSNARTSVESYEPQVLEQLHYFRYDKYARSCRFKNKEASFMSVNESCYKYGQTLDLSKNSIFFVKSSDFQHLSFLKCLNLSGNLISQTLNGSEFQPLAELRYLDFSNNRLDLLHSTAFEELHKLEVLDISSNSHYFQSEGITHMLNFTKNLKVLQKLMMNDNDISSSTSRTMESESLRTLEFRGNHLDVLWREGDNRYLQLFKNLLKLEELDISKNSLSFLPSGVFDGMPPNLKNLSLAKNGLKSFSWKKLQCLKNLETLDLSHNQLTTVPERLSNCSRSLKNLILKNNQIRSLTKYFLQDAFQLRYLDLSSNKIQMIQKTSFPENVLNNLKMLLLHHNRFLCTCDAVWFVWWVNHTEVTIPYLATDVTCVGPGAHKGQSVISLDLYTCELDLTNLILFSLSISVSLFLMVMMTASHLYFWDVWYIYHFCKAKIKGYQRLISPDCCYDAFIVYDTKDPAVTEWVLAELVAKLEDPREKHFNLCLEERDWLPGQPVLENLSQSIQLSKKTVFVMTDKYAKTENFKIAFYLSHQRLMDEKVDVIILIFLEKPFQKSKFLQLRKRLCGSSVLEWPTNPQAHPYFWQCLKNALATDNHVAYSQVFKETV
Experimental: as §1, with “(I) was” for “Iw as”, “TLR7” for “TLR8”, “TLR4,” for “TLR4, TLR7”
as §2
HEK-BLUE-hTLR7 cell line was purchased from InvivoGen. The cells were cultured in Dulbecco's Modified Eagle's Media containing 4.5 g/L […] (Sigma-Aldrich) and 10% FBS. The cells were cultured at 37° C., 95% humidity and 5% CO2.
[…] A known TLR8 agonist was added as positive control and 1 μl of DMSO was added as negative control.
as §3, with “follows.” for “follows:”
The cells were cultured and treated with the compounds at 37° C., 5% CO2 for 24 hours.
as §4, §5

[1] = 24 h treatment, SEAP/QUANTI-Blue readout

Structure (SMILES)	EC50 (TLR8; [1]) [nM]	EC50 (TLR7) [nM]	EC50 (TLR8; bound stated) [nM]
CCCN(CCC)C(=O)C1=Cc2ccc(-c3ccc4c(=O)n(Cc5nncn5C)ccc4c3)cc2N=C(N)C1 [Compound 1-2-36]	< 100	10000 to 50000	
CCCN(CCC)C(=O)C1=Cc2ccc(-c3ccc4c(=O)n(CCS(C)(=O)=O)cnc4c3)cc2N=C(N)C1 [Compound 1-7-2]	100 to 1000	> 50000	
CCCN(CCC)C(=O)C1=Cc2ccc(-c3ccc4c(=O)n(CCOP(=O)(OC)OC)ccc4c3)cc2N=C(N)C1 [Compound 1-2-45]	< 100	10000 to 50000	
CCCN(CCC)C(=O)C1=Cc2ccc(-c3ccc4c(=O)n(CCNS(C)(=O)=O)ccc4c3)cc2N=C(N)C1 [Compound 1-2-19]	< 100	> 50000	
CCCN(CCC)C(=O)C1=Cc2ccc(-c3ccc4c(=O)n(CCNC(C)=O)ccc4c3)cc2N=C(N)C1 [Compound 1-2-18]	< 100	> 50000	
CCCN(CCC)C(=O)C1=Cc2ccc(-c3ccc4c(=O)n(CC(N)=O)ncc4c3)cc2N=C(N)C1 [Compound 1-8-1]	< 100	> 50000	
CCCN(CCC)C(=O)C1=Cc2ccc(-c3ccc4c(=O)n(CCO)c(C)cc4c3)cc2N=C(N)C1 [Compound 1-2-8]	< 100	> 50000	
CCCN(CCC)C(=O)C1=Cc2ccc(-c3ccc4c(=O)n(CC(C)(C)O)c(C)cc4c3)cc2N=C(N)C1 [Compound 1-2-9]	< 100	> 50000	
CCCN(CCC)C(=O)C1=Cc2ccc(-c3ccc4c(=O)n(CCO)cnc4c3)cc2N=C(N)C1 [Compound 1-7-4]	< 100	> 50000	
CCCN(CCC)C(=O)C1=Cc2ccc(-c3ccc4c(=O)n(Cc5nnnn5C)ccc4c3)cc2N=C(N)C1 [Compound 1-2-40]	< 100	> 50000	< 10
CCCN(CCC)C(=O)C1=Cc2ccc(-c3ccc4c(c3)CCN(CC(C)(C)O)C4=O)cc2N=C(N)C1 [Compound 1-4-2]	< 100	> 50000	
CCCN(CCC)C(=O)C1=Cc2ccc(-c3ccc4c(=O)n(CCn5cccn5)ccc4c3)cc2N=C(N)C1 [Compound 1-2-32]	< 100	1000 to 10000	
CCCN(CCC)C(=O)C1=Cc2ccc(-c3ccc4c(=O)n(CC(C)(C)O)ccc4c3)cc2N=C(N)C1 [Compound 1-2-13]	< 100	> 50000	
CCCN(CCC)C(=O)C1=Cc2ccc(-c3ccc4c(=O)n(Cc5ncco5)ccc4c3)cc2N=C(N)C1 [Compound 1-2-28]	< 100	10000 to 50000	
CCCN(CCC)C(=O)C1=Cc2ccc(-c3ccc4c(=O)n(CCOC)ccc4c3)cc2N=C(N)C1 [Compound 1-2-14]	< 100	> 50000	
CCCN(CCC)C(=O)C1=Cc2ccc(-c3ccc4c(=O)n(CCN)ccc4c3)cc2N=C(N)C1 [Compound 1-2-17]	< 100	> 50000	

Second part, the compound after the results:

EC50 (TLR8; [1]) [nM]	EC50 (TLR7) [nM]	EC50 (TLR8; bound stated) [nM]	Structure (SMILES)
100 to 1000	> 50000		CCCN(CCC)C(=O)C1=Cc2ccc(-c3ccc4c(=O)n(CCS(C)(=O)=O)c(=O)n(C)c4c3)cc2N=C(N)C1 [Compound 1-9-4]
< 100	10000 to 50000		CCCN(CCC)C(=O)C1=Cc2ccc(-c3ccc4c(=O)n(Cc5ncco5)ncc4c3)cc2N=C(N)C1 [Compound 1-8-15]
< 100	1000 to 10000		CCCN(CCC)C(=O)C1=Cc2c(F)cc(-c3ccc4c(=O)n(CC(=O)N(C)C)ccc4c3)cc2N=C(N)C1 [Compound 1-10-9]
< 100	> 50000		CCCN(CCC)C(=O)C1=Cc2c(F)cc(-c3ccc4c(=O)n(CC(N)=O)ccc4c3)cc2N=C(N)C1 [Compound 1-10-1]
1000 to 10000	> 50000		CCCN(CCC)C(=O)C1=Cc2cc(F)c(-c3ccc4c(=O)n(CC(N)=O)ccc4c3)cc2N=C(N)C1 [Compound 1-11-1]
< 100	> 50000		CCCN(CCC)C(=O)C1=Cc2ccc(-c3ccc4c(=O)n(CC(=O)NC)ncc4c3)cc2N=C(N)C1 [Compound 1-8-2]
< 100	> 50000		CCCN(CCC)C(=O)C1=Cc2ccc(-c3ccc4c(=O)n(CC(C)(C)O)ncc4c3)cc2N=C(N)C1 [Compound 1-8-4]
< 100	> 50000		CCCN(CCC)C(=O)C1=Cc2ccc(-c3ccc4c(=O)n(CCO)c(=O)n(C)c4c3)cc2N=C(N)C1 [Compound 1-9-1]
< 100	> 50000	< 10	CCCN(CCC)C(=O)C1=Cc2ccc(-c3ccc4c(=O)n(CCS(C)(=O)=O)ncc4c3)cc2N=C(N)C1 [Compound 1-8-5]
